What all share (type): biochemical
The target of one assay is T1, recombinant rat WT CAC (Rattus norvegicus, UniProt P97521).
T1 construct: made in house; host or cells: E. coli C0214 (pMW7, inclusion bodies)
T1 sequence (P97521 1-301): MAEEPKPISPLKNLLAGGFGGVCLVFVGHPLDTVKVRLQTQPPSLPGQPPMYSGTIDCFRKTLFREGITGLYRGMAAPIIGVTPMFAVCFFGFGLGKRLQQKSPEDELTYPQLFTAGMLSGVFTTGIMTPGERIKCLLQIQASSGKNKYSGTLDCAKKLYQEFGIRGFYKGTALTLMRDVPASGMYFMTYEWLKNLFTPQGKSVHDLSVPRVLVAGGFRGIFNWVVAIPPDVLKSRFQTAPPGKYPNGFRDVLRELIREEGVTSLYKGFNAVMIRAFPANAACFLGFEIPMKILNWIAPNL
The experiment in a line: [3H]-carnitine/carnitine antiport in proteoliposomes with recombinant rat WT CAC. Here is the method:
To shed light on the interaction between PAT and CAC and verify if specific Cys residues were involved, transport experiments on the recombinant rat and human WT CAC and CAC’s rat Cys mutants were performed. As in the case of the native protein, transport activities were measured as [^3H]-carnitine/carnitine antiport in proteoliposomes. […] The PAT inhibition of the WT recombinant protein was only slightly greater compared to the native protein, although compounds and other molecular systems that affect the mycotoxin binding to the native CAC were absent (see above). For identifying the residues involved in the PAT interaction, site-directed Cys mutants were tested for inhibition (Figure 2). […] The choice of this last mutant was due to the proximity of C155 to C136 during some steps of the substrate translocation mechanism. […] To confirm the main role played by C136 in the carrier PAT-induced impairment, the single mutant C155S and the mutant containing only C136 residue (C23V/C58V/C89S/C155V/C283S) were examined (Figure 2). […] Finally, no effect of the mycotoxin was observed on the C-less mutant (C23V/C58V/C89S/C136V/C155V/C283S), definitively excluding the participation of other residues in the interaction with PAT.
Figure 2 Dose-response analysis of the PAT inhibition of the CAC recombinant proteins. […] The data are expressed as a percentage of the controls (no PAT addition) and are means ± SD of three independent experiments.
The pMW7-WT rat or human CAC recombinant plasmids were used for over-expressing the rat and human CAC, as previously described. To introduce the mutations on the rat CAC recombinant plasmid, the overlap extension method was used as described, introducing the NdeI and HindIII restriction sites. The PCR products were purified using the QIAEX II Gel Extraction Kit (QIAGEN, Hilden, Germany), digested with NdeI and HindIII, and then ligated into the pMW7. All mutations were verified by DNA sequencing. The resulting plasmid constructs were transformed into E. coli C0214. Overexpression, inclusion body fraction preparation, and purification of the CAC proteins were performed as previously described.
The recombinant CAC proteins were reconstituted in proteoliposomes as previously described. […]
(§1) For the transport assay, 550 μL of proteoliposomes were passed through a Sephadex G-75 column in order to remove the external substrate. […] After finishing the transport reaction, the external radiolabel substrate was removed by gel filtration chromatography (Sephadex G-75), and the intraliposomal radioactivity was measured by liquid scintillation. Transport was measured at 25 °C. […] Transport rates were measured in 10 min, i.e., within the initial linear range of the time course.

In a further assay the target is T2, recombinant human WT CAC (Homo sapiens, UniProt O43772).
T2 construct: made in house; host or cells: E. coli C0214 (pMW7, inclusion bodies)
T2 sequence (O43772 1-301): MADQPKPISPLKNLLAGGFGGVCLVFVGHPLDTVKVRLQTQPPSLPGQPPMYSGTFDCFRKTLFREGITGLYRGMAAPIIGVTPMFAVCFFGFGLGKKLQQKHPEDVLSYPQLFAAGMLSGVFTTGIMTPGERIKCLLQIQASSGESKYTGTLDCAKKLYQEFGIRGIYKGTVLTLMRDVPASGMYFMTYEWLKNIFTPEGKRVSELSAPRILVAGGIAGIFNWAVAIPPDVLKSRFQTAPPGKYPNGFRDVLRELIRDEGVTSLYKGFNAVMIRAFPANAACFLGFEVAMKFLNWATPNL
Put plainly: [3H]-carnitine/carnitine antiport in proteoliposomes with recombinant human WT CAC. The settings on record: PAT 30 min, read-out: IC50 of CAC WT inhibition. Here is the method:
(§2) To shed light on the interaction between PAT and CAC and verify if specific Cys residues were involved, transport experiments on the recombinant rat and human WT CAC and CAC’s rat Cys mutants were performed. As in the case of the native protein, transport activities were measured as [^3H]-carnitine/carnitine antiport in proteoliposomes. […] The PAT inhibition of the WT recombinant protein was only slightly greater compared to the native protein, although compounds and other molecular systems that affect the mycotoxin binding to the native CAC were absent (see above). For identifying the residues involved in the PAT interaction, site-directed Cys mutants were tested for inhibition (Figure 2). […]
(§3) Figure 2 Dose-response analysis of the PAT inhibition of the CAC recombinant proteins. […] The data are expressed as a percentage of the controls (no PAT addition) and are means ± SD of three independent experiments. […]
as §1

The target of assay [1] is T3, rat CAC mutant C23V/C58V/C89S/C136V/C283S (Rattus norvegicus, UniProt P97521, C136V/C23V/C283S/C58V/C89S).
T3 construct: made in house; host or cells: E. coli C0214 (pMW7, inclusion bodies)
T3 sequence (P97521 1-301 C23V/C58V/C89S/C136V/C283S): T1 sequence (P97521 1-301) with C23V, C58V, C89S, C136V, C283S
The experiment in a line: Carnitine antiport in proteoliposomes, CAC mutant containing only C155. How it is done:
as §2, §3, §1

The target in the next assay is T4, rat CAC mutant C155S (Rattus norvegicus, UniProt P97521, C155S).
T4 construct: made in house; host or cells: E. coli C0214 (pMW7, inclusion bodies)
T4 sequence (P97521 1-301 C155S): T1 sequence (P97521 1-301) with C155S
The experiment in a line: Carnitine antiport in proteoliposomes, CAC mutant C155S. How it is done:
as §2, §3, §1

One may read the IC50 as the concentration that gives 50% inhibition.

Substitutions are numbered along the chain they refer to. Several values for one entry are separate records, joined by “and”; a condition that tells them apart may be missing. Equal entries are not always repeated.

In the case of `O=C1C=C2C(=CCOC2O)O1` (stereo not shown) [PAT, 4-hydroxy-4H-furo [3,2c] pyran-2 [6H] -one], the “reversal of inhibition by DTE” value on recombinant rat WT CAC (50 μM PAT 30 min, 5 mM DTE, recombinant WT) was “not reversed”. For the same compound, the “substrate protection: effect of carnitine on PAT inhibition” value at recombinant rat WT CAC (carnitine 0.5 and 10 mM added before 50 μM PAT) is “partially prevented”. At recombinant rat WT CAC (protein form not specified), the type of inhibition result is recorded as “competitive”. Besides, the IC50 at recombinant rat WT CAC (rat recombinant WT, PAT 30 min, read-out: IC50 of CAC WT inhibition) was 47 µM and ~50 µM; on recombinant human WT CAC it was 50 µM and ~50 µM; in assay [1] it was “not possible to detect”; against rat CAC mutant C155S it was “comparable to the WT”.

The values above are taken from PMC9917099, “The Mycotoxin Patulin Inhibits the Mitochondrial Carnitine/Acylcarnitine Carrier (SLC25A20) by Interaction with Cys136 Implications for Human Health” (International Journal of Molecular Sciences, 2023).
